In patent publication US20190110476A1, “NOVEL ISOTHIAZOLAMIDES, PROCESSES FOR THEIR PREPARATION AND THEIR USE AS FUNGICIDES” (priority 2014, published 2019):
Marks after values point to notes of the source that are not given here.

Assay: Measurement of LogP values by HPLC on reversed phase columns (EEC directive 79/831 Annex V.A8)
Type: physicochemical
Details: not given
Summary of the method: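 Following EEC directive 79/831 Annex V.A8, lipophilicity was derived from retention on reversed-phase HPLC columns. Separate values are given per diastereoisomer, and UV lambda-max (200–400 nm) was read at the peak signals.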

Structure (SMILES)	LogP	LogP [a]	LogP [b]
COc1ccc(CN(C(=O)C(=O)N[C@H](C)C2CCCCC2)c2nsc(C(=O)N[C@H](C)C3CCCCC3)c2Cl)cc1 [I-072]	4.54[a]	–	–
Nc1cc(C(=O)NCC2CCCC2O)sn1 (centres unmarked) [I-774]	0.63[a]	–	–
CCC1(CNC(=O)c2snc(NC(C)C)c2Cl)CCCCC1 [I-834]	5.03[a]	–	–
O=C(NCc1ccc(F)c(F)c1F)c1snc(N=S2CCCC2)c1Cl [II-048]	–	1.83^[a]	–
C#CCOC(=O)N(C(=O)OCC#C)c1nsc(C(=O)N[C@@H](C)C2CCCCC2)c1Cl [I-135]	3.96[a]	–	–
COc1c(N)nsc1C(=O)NCc1c(F)cc(F)cc1F [I-732]	1.82[a]	–	–
Nc1nsc(C(=O)NCc2ccc(F)c(F)c2F)c1Cl [I-121]	2.09[a]	–	–
C[C@H]1[C@H](CNC(=O)c2snc(N)c2Cl)CCC[C@H]1C (relative stereo) [I-1291]	3.10[a]	–	–
COc1ccc(CNc2nsc(C(=O)Nc3cc(F)cc(F)c3)c2Cl)cc1 [I-862]	4.15[a]	–	–
COc1ccc(CNc2nsc(C(=O)NC3(c4ccccc4Br)CC3)c2Cl)cc1 [I-1322]	4.40[a]	–	–
Cc1ccc(C2(C)CC2)c(CNC(=O)c2snc(N)c2Cl)c1 [I-414]	3.29[a]	–	–
Nc1nsc(C(=O)NC2CCc3ccccc32)c1Cl (centres unmarked) [I-140]	2.30[a]	–	–
C[C@@H]1CCCC[C@H]1NC(=O)c1snc(N)c1F (relative stereo) [I-1357]	2.21[a]	–	–
Nc1nsc(C(=O)NC2CCCC3CCCCC32)c1Cl (centres unmarked) [I-621]	3.39[a]	–	–
Nc1nsc(C(=O)NCC2(F)CCCC2)c1Cl [I-826]	1.81[a]	–	–
COc1ccc(CNc2nsc(C(=O)NCC34CCC(CC3)C4)c2Cl)cc1 [I-739]	4.29[a]	–	–
COc1ccc(CNc2nsc(C(=O)NC3CCCC(C)C3C)c2Cl)cc1 (centres unmarked) [I-1210]	4.46[a]	–	–
COc1ccc(CNc2nsc(C(=O)NC(C)Cc3ccccc3Cl)c2Cl)cc1 (centres unmarked) [II-010]	–	4.33^[a]	–
CCOc1c(N)nsc1C(=O)NC1CCCCC1 [I-727]	2.14[a]	–	–
Nc1nsc(C(=O)Nc2cccc3c2CCC3)c1Cl [I-926]	2.75[a]	–	–
CCOc1c(N)nsc1C(=O)NCC1CCCCO1 (centres unmarked) [I-729]	1.66[a]	–	–
Nc1nsc(C(=O)NCC2CCCCC2Cl)c1Cl (centres unmarked) [I-821]	2.44[a]	–	–
O=C(NC1CCCCC1)c1snc(N(Cc2ccccc2)Cc2ccccc2)c1-c1ccc(F)cc1 [I-319]	5.98[a]	–	–

Structure (SMILES)	LogP	LogP [a]	LogP [b]
COc1ccc(CNc2nsc(C(=O)Nc3ccc(F)cc3F)c2Cl)cc1 [I-856]	3.83[a]	–	–
Cc1c(N)nsc1C(=O)NCc1cc(F)cc(F)c1F [I-585]	1.82[a]	–	–
Nc1cc(C(=O)NCc2ccc(Cl)cc2Cl)sn1 [I-306]	2.11[a]	–	–
Cc1c(N)nsc1C(=O)NCC1CCCC1O (single isomer, unassigned) [I-706]	0.79[a]	–	–
COc1ccc(CNc2nsc(C(=O)N(C3CC3)C3CCCCC3(C)C)c2Cl)cc1 (centres unmarked) [I-860]	5.31[a]	–	–
Cc1c(N)nsc1C(=O)NCc1c(F)cccc1Cl [I-587]	1.61[a]	–	–
CC1(C)C2CCC(CNC(=O)c3snc(Cl)c3Cl)C1C2 (centres unmarked) [E-II-023]	–	5.13	5.02
O=C(NCC1CCCCC1)c1snc(N=S2CCCCC2)c1Cl [II-088]	–	2.60^[a]	–
COc1ccc(CNc2nsc(C(=O)NCc3ccnc(OC)n3)c2Cl)cc1 [I-1316]	2.56[a]	–	–
COc1ccc(CNc2nsc(C(=O)NC3CCc4ccccc43)c2Cl)cc1 (centres unmarked) [I-111]	4.04[a]	–	–
CC1(C)C2CCC1(C)C(NC(=O)c1snc(Cl)c1Cl)C2 (centres unmarked) [E-II-022]	–	5.07	4.94
O=C(NCc1cc(F)cc(F)c1)c1cc(N(Cc2ccccc2)Cc2ccccc2)ns1 [I-285]	4.53[a]	–	–
O=C(c1cc(N(Cc2ccccc2)Cc2ccccc2)ns1)N(Cc1c(F)cccc1Cl)C1CC1 [I-911]	5.54[a]	–	–
CCOC(=O)C1CCC(NC(=O)c2snc(N)c2Cl)CC1 (centres unmarked) [I-843]	1.92[a]	–	–
Cc1ccccc1NC(=O)c1snc(N)c1Cl [I-914]	2.08[a]	–	–
Nc1nsc(C(=O)NC2CCCCC2)c1C1CC1 [I-360]	2.00[a]	–	–
CCCCC(=O)Nc1nsc(C(=O)NCC2CCCCC2)c1Cl [I-450]	3.20[c]	–	–
CS(C)=Nc1nsc(C(=O)NCc2ccc(F)c(F)c2F)c1F [II-076]	–	1.39^[a]	–
COc1ccc(CNc2nsc(C(=O)Nc3ccc(F)cc3)c2Cl)cc1 [I-858]	3.76[a]	–	–
COc1ccc(CNc2nsc(C(=O)N3CCc4cc(F)ccc4C3)c2Cl)cc1 [II-065]	–	3.73^[a]	–
Cc1ccc(CNC(=O)c2snc(N)c2Cl)c(F)c1F [I-123]	2.26[a]	–	–
COc1ccc(CNc2nsc(C(=O)N(C3CC3)C(C)c3ccccc3)c2Cl)cc1 (centres unmarked) [I-873]	4.17[a]	–	–
COc1ccc(CNc2nsc(C(=O)NCc3ccc(Oc4ccccc4)cc3)c2Cl)cc1 [I-221]	4.41[a]	–	–

Same assay, conditions: HPLC LC-UV, acidic range, 0.1% formic acid in water and acetonitrile as eluent

Structure (SMILES)	chromatographic logP
O=C(O)c1cc(N(Cc2ccccc2)Cc2ccccc2)ns1 [E-VIII-003, 3-(dibenzylamino)-1,2-thiazole-5-carboxylic acid]	3.35
Nc1nsc(C(=O)O)c1Cl [E-VIII-012, 3-amino-4-chloroisothiazole-5-carboxylic acid]	-0.13
